This data set in a line: Solubility in 90 g/L salt solution at 50° C. The format is physicochemical. As for the experimental part:
9% w/v solutions of Dyestuff (Ia) and of Dyestuff (5) were prepared at 50° C. and salt added to produce a 90 g/L salt solution. After 30 mins, 4.2% of Dyestuff (Ia) remained in solution whilst only 2.8% of Dyestuff (5) remained in solution. Thus Dyestuff (Ia) is 50% more soluble in 90 g/L salt at 50° C. than Dyestuff (5). This factor can be crucial as dyeings are carried out at high salt concentrations and better salt solubility can avoid problems with unlevel exhaustion onto the fibre from an exhaust dyebath.

The structures appear in SMILES notation.

Turning to `Cc1ccc(Nc2nc(Cl)nc(Nc3ccc(/N=N/c4c(N)c(S(=O)(=O)O)cc5cc(S(=O)(=O)O)cc(O)c45)c(S(=O)(=O)O)c3)n2)c(Nc2nc(Cl)nc(Nc3ccc(/N=N/c4c(N)c(S(=O)(=O)O)cc5cc(S(=O)(=O)O)cc(O)c45)c(S(=O)(=O)O)c3)n2)c1` [Dyestuff (Ia)], the “dyestuff remained in solution” value (9% w/v solution prepared at 50° C., salt added to give 90 g/L salt solution, after 30 mins) was found to be 4.2%. The “more soluble than Dyestuff (5)” value (in 90 g/L salt at 50° C., relative to Dyestuff (5)) came to 50%.

The values are drawn from US7026458B2, “High light fastness reactive red dyes” (DyStar Textilfarben GbmH & Co. Deutschland KG, priority 2003, dated 2006).
